In US5458874A, “Method of increasing monocyte chemotaxis with CAP37 and monocyte chemotactic portions thereof” (Emory University, priority 1992, dated 1995):
“Also recorded” adds a separate entry of the source. Read-outs that look alike come from different tables or passages of the source.

Assays:
[1] = test system: Salmonella typhimurium SH9178; test: Bactericidal assay; type: cell-based; details: for bactericidal effect on Salmonella typhimurium SH9178 (in words): FIGS. 12, 13, 15, 1 hour at 37° C.; for % survival with peptide 20-44: Salmonella SH9178
Description: (§1) An overnight culture of Salmonella typhimurium (or other microorganism of interest, if desired) is set up by inoculating one colony in 5 ml of LB Broth (LB Broth consists of 10 g BACTO tryptone (DIFCO), 5 g BACFO yeast (DIFCO) and 5 g NaCl made up to 1 L with endotoxin free water; add 15 g of BACTO agar (DIFCO) to this broth to make LB agar (autoclave). The culture is incubated at 37° C. with rotation. 100 μl of this overnight culture is then transferred to 5 ml of fresh LB Broth and incubated at 37° C. with rotation for 2 hours. Four ml of this log phase culture is then transferred to a sterile cuvette and the optical density is read at […]. Dilutions of the microorganism are then made in tryptone saline (5 g BAOTO tryptone (DIFCO) and 5 g NaCl made up to 1 L with endotoxin free water, pH 5.5) to give a final concentration of 5×10^3 organisms/ml (an O.D. reading of 0.25 at 520 mm is equivalent to 1×10^8 organisms/ml). The microorganisms are placed at 4° C. until ready to be used.
(§2) The stock solutions of peptides are stored at -20° C. at concentrations of 1 mg/ml of endotoxin-free water. The peptide is diluted out in tryptone saline to the desired concentration. 100 μl of the peptide is added to each well of the microtitre plate (Corning) and then 100 μl of the bacterial suspension (well vortexed) is added. Each assay point is set up in triplicate. 100 μl of a control, consisting of bacteria and tryptone saline (T=0) in the absence of peptide is plated out on LB agar plates. The microliter plate is then incubated at 37° C. for 1 hour. At the end of the incubation time, 100 μl of each sample is plated out on LB agar plates. The T=60 control (consisting of bacteria and tryptone saline in the absence of peptide) is plated out last. The plates are incubated overnight, and the number of colony forming units (CFU) are determined.
(§3) The % killed is determined as follows: [formula]

human monocytes = test: Monocyte chemotaxis, modified Boyden chamber technique; type: cell-based; details: chemoattractant conc. 10^-8 M
Description: Chemotaxis was measured using the modified Boyden chamber technique (Snyderman et al.). The leading front method (Zigmond et al.) was used to assess migration of monocytes and lymphocytes through a 8 μm filter (Millipore Corporation, Bedford, Mass.). PMN chemotaxis was measured using a 3 μm filter (Millipore). The purified CAP37 protein (Example 1) used in chemotaxis assays were endotoxin-free as determined by the Limulus Amoebocyte Lysate Assay (Whittaker Bioproducts, Inc., Walkersville, Md.). The dilutions of CAP37 and N-formyl-methionyl-leucyl-phenylalanine (FMLP) were made in Geys buffer (Gibco) containing 2% endotoxin-free bovine serum albumin (BSA). Geys buffer containing 2% BSA served as the negative control, and a […] solution of FMLP as the positive control.
The chambers were incubated in a humidified atmosphere (6.2% CO2) for 2 hours when testing monocytes and lymphocytes, and for 30 minutes when testing PMNs. The filters were then removed and processed as previously described (Snyderman et al.). The cells were viewed using oil immersion and the distance the cells had migrated into the filter was determined over five different fields on the same slide (Zigmond et al.). Triplicate assays were performed for each experimental point.
The three peptides were tested for chemotactic activity towards monocytes using the modified Boyden Chamber technique described in Example 2. The monocyte chemotactic activity of each peptide fragment at concentrations ranging from 10^-7 to 10^-13 M was compared with Geys buffer (negative control), FMLP 10^-8 M (positive control) and purified CAP37 10^-9 M (positive control). […] The effect of peptide 1 on monocyte chemotaxis is illustrated in Table 2 while the effect of peptide 3 on monocyte chemotaxis is illustrated in Table 3.

L monocytogenes = test: Bactericidal assay; type: cell-based, Listeria monocytogenes
Description: as §1
(§4) The stock solutions of peptides are stored at -20° C. at concentrations of 1 mg/ml of endotoxin-free water. The peptide is diluted out in tryptone saline to the desired concentration. […] The plates are incubated overnight, and the number of colony forming units (CFU) are determined.
as §3

Re LPS from Salmonella = test: Neutralization of LPS activity, limulus amebocyte lysate (LAL) assay, Re LPS; type: biochemical
Description: (§5) Further, the neutralization of LPS activity, as assayed by the limulus amebocyte lysate (LAL) assay, by CAP37 was measured. CAP37 was diluted to the desired concentrations (from 6.2 ng/ml to 500 ng/ml) in geys buffered saline pH 7 (GIBCO). To this wild type LPS (RIBI IMMUNOCHEM) or Re LPS from Salmonella (David Morrison, Kansas Medical Center) was added so that the final concentrations were 0.1, 0.5, 1.0 and 2.0 ng/ml LPS. The tubes were incubated at 37° C. for between 30 to 60 minutes and then assayed in the chromogenic LAL assay, using polymyxin E as a control.
(§6) As discussed in Example 11, peptides can be screened for lipopolysaccharide neutralizing capacity using the LAL assay also. The CAP37 peptide was diluted to the desired concentrations (from 125 ng/ml to 4000 ng/ml) in geys buffered saline pH 7 (GIBCO). To this is added the wild type LPS (RIBI IMMUNOCHEM) or Re LPS from Salmonella (David Morrison, Kansas Medical Center) so that the final concentration is 0.1, 0.5, and 1.0 ng/ml LPS. The tubes were incubated at 37° C. for between 30 to 60 minutes and then assayed in the chromogenic LAL assay.

Strep. pyogenes = test: Bactericidal assay; type: cell-based, Streptococcus pyogenes
Description: as §1, §4, §3

E. coli = test: Bactericidal assay; type: cell-based, Escherichia coli
Description: as §1, §2, §3

Ps. aeruginosa = test: Bactericidal assay; type: cell-based, Pseudomonas aeruginosa; details: for % survival with peptide 20-44: Ps. aeruginosa; for bactericidal activity (in words): Pseudomonas
Description: as §1, §2, §3

[2] = test system: Salmonella typhimurium SH9178; test: Inhibition of the bactericidal effect by LPS and Lipid A; type: cell-based; details: peptide at 200 μg/ml, FIG. 16
Description: To identity, those peptides derived from CAP37 having bacterial LPS-binding activity, the peptide fragments having bactericidal activity were tested to ascertain whether LPS or Lipid A inhibited that activity.

wild type LPS = test: Neutralization of LPS activity, limulus amebocyte lysate (LAL) assay, wild type LPS; type: biochemical
Description: as §5, §6

[3] = test system: gram negative and gram positive bacteria; test: Bactericidal assay, assortment of bacteria (FIG. 14); type: cell-based
Description: as §1, §4, §3

P. mirabilis Re45 = test: Bactericidal assay; type: cell-based, Proteus mirabilis; details: for % survival with peptide 20-44: P. mirabilis Re45
Description: as §1, §2, §3

E. faecalis = test: Bactericidal assay; type: cell-based, Enterococcus faecalis
Description: as §1, §2, §3

Salmonella LT2 = test: Bactericidal assay; type: cell-based, Salmonella typhimurium; details: for % survival with peptide 20-44: Salmonella LT2; for bactericidal activity (in words): Salmonella typhimurium LT2
Description: as §1, §2, §3

Salmonella SH7518 = test: Bactericidal assay; type: cell-based, Salmonella typhimurium; details: for % survival with peptide 20-44: Salmonella SH7518
Description: as §1, §2, §3

S. aureus 502A = test: Bactericidal assay; type: cell-based, Staphylococcus aureus
Description: as §1, §4, §3

Salmonella SH7426 = test: Bactericidal assay; type: cell-based
Description: as §1, §2, §3

In the case of “1-44aa: synthesized peptide fragment, amino acids 1-44 of the mature CAP37 protein (IVGGRKARPRQFPFLASIQNQGRHFCGGALIHARFVMTAASCFQ; UniProt P20160 27-70, looked up, fragment)”, the “bactericidal effect on Salmonella typhimurium SH9178 (in words)” value (shortened to “bactericidal effect … (in words)”) [1] was “active but not to the same extent as peptide 20-44aa”.

For “26-42aa: synthesized peptide fragment, amino acids 26-42 of the mature CAP37 protein (CGGALIHARFVMTAASC; UniProt P20160 52-68, looked up, fragment)”, the “bactericidal effect … (in words)” value [1] was “minimal activity”.

With CSCC[C@H](NC=O)C(=O)N[C@@H](CC(C)C)C(=O)N[C@@H](Cc1ccccc1)C(=O)O [FMLP, N-formyl-methionyl-leucyl-phenylalanine, reference compound] the “Distance migrated in μm” value (human monocytes; Table 2) was 86.2 μm and the “Distance migrated in μm” value (human monocytes; Table 3) was 91.4 μm.

For “peptide 20-44aa: synthesized peptide fragment, amino acids 20-44 of the mature CAP37 protein (NQGRHFCGGALIHARFVMTAASCFQ)”, the “% survival with peptide 20-44” value (L monocytogenes; 50 uM) was 65.8%, the “% survival with peptide 20-44” value (L monocytogenes; 75 uM) was 64.6% and the “neutralization of Re LPS activity (LAL assay)” value (Re LPS from Salmonella) was “more dramatic”. The “% survival with peptide 20-44” value (Strep. pyogenes; 50 uM) was 93.4%, the “% survival with peptide 20-44” value (Strep. pyogenes; 75 uM) was 78% and the “bactericidal activity (in words)” value (E. coli) was “more active”. The “% survival with peptide 20-44” value (E. coli; 50 uM) was 24.6%, the “% survival with peptide 20-44” value (E. coli; 75 uM) was 0% and the “bactericidal activity (in words)” value (E. coli; listed as CAP37 peptide 20-44) was “most active”. The “% survival with peptide 20-44” value (Ps. aeruginosa; 50 uM) was 0%, the “% survival with peptide 20-44” value (Ps. aeruginosa; 75 uM) was 0% and the “bactericidal activity (in words)” value (Ps. aeruginosa) was “more active”. For the same compound, the “bactericidal activity (in words)” value (Ps. aeruginosa; listed as CAP37 peptide 20-44) was “most active”, the “inhibition of the bactericidal effect by wild type LPS and Lipid A” value [2] was “wild type LPS, but more particularly Lipid A, can inhibit the bactericidal effect” and the “neutralization of wild type LPS activity (LAL assay)” value (wild type LPS) was “neutralizing its effect to a certain extent”. The “antibacterial activity against gram negative and gram positive bacteria (in words)” value [3] was “active against a wide assortment of bacteria”, the “antibacterial activity against gram negative and gram positive bacteria (in words)” value ([3]; listed as peptide 20-14aa) was “active against many other bacteria” and the “% survival with peptide 20-44” value (P. mirabilis Re45; 50 uM) was 26.8%. The “% survival with peptide 20-44” value (P. mirabilis Re45; 75 uM) was 29%, the “bactericidal activity (in words)” value (P. mirabilis Re45; Pr. mirabilis Re45) was “more active” and the “bactericidal activity (in words)” value (E. faecalis) was “more active”. For the same compound, the “% survival with peptide 20-44” value (E. faecalis; 50 uM) was 16.1%, the “% survival with peptide 20-44” value (E. faecalis; 75 uM) was 0% and the “bactericidal activity (in words)” value (E. faecalis; listed as CAP37 peptide 20-44) was “most active”. For the same compound, the “% survival with peptide 20-44” value (Salmonella LT2; 50 uM) was 28.5%, the “% survival with peptide 20-44” value (Salmonella LT2; 75 uM) was 1.7% and the “bactericidal activity (in words)” value (Salmonella LT2) was “more active”. The “bactericidal activity (in words)” value (Salmonella LT2; listed as CAP37 peptide 20-44) was “most active”, the “% survival with peptide 20-44” value (Salmonella SH7518; 50 uM) was 0.6% and the “% survival with peptide 20-44” value (Salmonella SH7518; 75 uM) was 0%. The “bactericidal activity (in words)” value (Salmonella SH7518; Salmonella typhimurium SH7518) was “most active”, the “% survival with peptide 20-44” value (S. aureus 502A; 50 uM) was 58.7% and the “% survival with peptide 20-44” value (S. aureus 502A; 75 uM) was 27.5%. For the same compound, the “% survival with peptide 20-44” value ([1]; 50 uM) was 36.9%, the “% survival with peptide 20-44” value ([1]; 75 uM) was 3.5% and the “bactericidal activity compared with cathepsin G and elastase peptides” value ([1]; 100 and 125 μM, FIG. 15) was “very much more bactericidal”. The “bactericidal effect … (in words)” value [1] was “most potent antibiotic of these peptides; also recorded: Strongest activity; also recorded: extremely active”, the “bactericidal effect … (in words)” value ([1]; listed as CAP37 peptide 20-44) was “most active” and the “% survival with peptide 20-44” value (Salmonella SH7426; 50 uM) was 62.5%. The “% survival with peptide 20-44” value (Salmonella SH7426; 75 uM) was 31.9%.
